The source of these data is patent US4446319A, “Aminocyclitols and their production” (Takeda Chemical Industries, Ltd., priority 1981, dated 1984).

Where only a bound is given, the exact number is not on record here.

In one series the test system is α-glucoside hydrolase. Particulars: reported in Journal of Antibiotics 33, 1575 to 1576 (1980); cited from earlier work.
Series [1] addresses T1, glucoamylase (Rhizopus mold) (Rhizopus oryzae, UniProt P07683).
T1 construct: purchased Sigma Chemical Co; host or cells: Rhizopus mold
T1 sequence (P07683 26-604): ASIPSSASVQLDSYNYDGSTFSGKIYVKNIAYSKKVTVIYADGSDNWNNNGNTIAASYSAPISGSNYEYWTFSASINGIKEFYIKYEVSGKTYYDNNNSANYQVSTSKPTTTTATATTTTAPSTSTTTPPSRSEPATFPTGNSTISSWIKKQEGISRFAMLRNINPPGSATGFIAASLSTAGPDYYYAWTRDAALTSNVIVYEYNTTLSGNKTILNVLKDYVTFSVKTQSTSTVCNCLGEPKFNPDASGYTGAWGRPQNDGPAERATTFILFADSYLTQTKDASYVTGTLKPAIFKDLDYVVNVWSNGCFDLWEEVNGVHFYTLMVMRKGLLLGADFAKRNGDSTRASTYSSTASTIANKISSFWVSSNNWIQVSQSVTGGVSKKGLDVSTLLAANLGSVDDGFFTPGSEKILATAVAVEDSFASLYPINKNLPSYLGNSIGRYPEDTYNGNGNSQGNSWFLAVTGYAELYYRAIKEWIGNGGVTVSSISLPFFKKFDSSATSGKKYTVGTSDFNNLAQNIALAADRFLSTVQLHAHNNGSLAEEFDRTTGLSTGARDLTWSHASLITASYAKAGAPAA
As to the kind of experiment: glucoamylase inhibitory activity, p-nitrophenyl α-D-glucopyranoside as substrate. Particulars: substrate 0.01 M p-nitrophenyl α-D-glucopyranoside, pH 6.8, 37° C., read-out: IC50 (concentration of 50% inhibition). Format: biochemical. How it is done: (§1) The inhibitory activities against α-glucosidase (yeast, type I, produced by Sigman Chemical Co.) and glucoamylase (Rhizopus mold, produced by Sigma Chemical Co.) when p-nitrophenyl α-D-glucopyranoside is used as a substrate, are determined by adding to 0.25 ml of 0.02 M phosphate buffer (pH 6.8) containing 0.005 mg/ml of α-glucosidase 0.5 ml of a solution of valiolamine in the same buffer and 0.25 ml of a solution of 0.01 M p-nitrophenyl α-D-glucopyranoside in the same buffer, allowing the reaction to proceed at 37° C. for 15 minutes, then adding 3 ml of 0.1 M aqueous sodium carbonate solution to terminate the reaction, and measuring the absorbance of the reaction solution at 400 nm. The 50% inhibition concentration is calculated from the inhibition rates (%) which are determined with inhibitory substance samples of three to five different concentrations.

Series [2] concerns the target T2, α-glucosidase (yeast, type I) (Saccharomyces cerevisiae, UniProt P53341).
T2 construct: purchased Sigma Chemical Co; host or cells: yeast
As to the kind of experiment: glucosidase inhibitory activity, p-nitrophenyl α-D-glucopyranoside as substrate. The conditions noted are these: substrate 0.01 M p-nitrophenyl α-D-glucopyranoside, pH 6.8, 37° C., read-out: IC50 (concentration of 50% inhibition). Format: biochemical. The protocol:
as §1

The target of series [3] is T2, α-glucosidase (yeast, type I). As to the kind of experiment: glucosidase inhibitory activity, maltose as substrate. Format: biochemical. The conditions noted are these: substrate 0.05 M maltose, pH 6.8, 37° C., read-out: IC50 (concentration of 50% inhibition). The protocol: (§2) The inhibitory activities of valiolamine against α-glucosidase (yeast, type I, produced by Sigma Chemical Co., U.S.A.) as well as maltase and saccharase prepared from porcine intestinal mucosa (prepared in accordance with the procedure as described by B. Borgstrom and A. Dahlqvist in Acta Chem. Scand.; 12, 1997-2006, (1958)), when maltose and sucrose are used as a substrate, are determined by adding to 0.25 ml of a solution of an enzyme prepared by diluting suitably with 0.02 M phosphate buffer (pH 6.8) 0.5 ml of a solution of valiolamine to be tested in the same buffer and 0.25 ml of 0.05 M maltose or 0.05 M sucrose as the substrate in the same buffer allowing the mixture to react at 37° C. for 10 minutes, then adding 3 ml of Glucose B-Test Reagent (a glucose oxidase reagent for measurement of glucose, produced by Wako Pure Chemical Co., Japan), further warming the mixture at 37° C. for 20 minutes and measuring the absorbance of the reaction solution at 505 nm. […]

Another series is described as follows: toxicity (LD50) in rats. The conditions noted are these: rat, in vivo.
In series [4] the target is maltase (porcine, intestinal mucosa). As to the kind of experiment: maltase inhibitory activity, maltose as substrate. Format: biochemical. Particulars: substrate 0.05 M maltose, pH 6.8, 37° C., read-out: IC50 (concentration of 50% inhibition). How it is done: as §2

T2 sequence (P53341 whole entry): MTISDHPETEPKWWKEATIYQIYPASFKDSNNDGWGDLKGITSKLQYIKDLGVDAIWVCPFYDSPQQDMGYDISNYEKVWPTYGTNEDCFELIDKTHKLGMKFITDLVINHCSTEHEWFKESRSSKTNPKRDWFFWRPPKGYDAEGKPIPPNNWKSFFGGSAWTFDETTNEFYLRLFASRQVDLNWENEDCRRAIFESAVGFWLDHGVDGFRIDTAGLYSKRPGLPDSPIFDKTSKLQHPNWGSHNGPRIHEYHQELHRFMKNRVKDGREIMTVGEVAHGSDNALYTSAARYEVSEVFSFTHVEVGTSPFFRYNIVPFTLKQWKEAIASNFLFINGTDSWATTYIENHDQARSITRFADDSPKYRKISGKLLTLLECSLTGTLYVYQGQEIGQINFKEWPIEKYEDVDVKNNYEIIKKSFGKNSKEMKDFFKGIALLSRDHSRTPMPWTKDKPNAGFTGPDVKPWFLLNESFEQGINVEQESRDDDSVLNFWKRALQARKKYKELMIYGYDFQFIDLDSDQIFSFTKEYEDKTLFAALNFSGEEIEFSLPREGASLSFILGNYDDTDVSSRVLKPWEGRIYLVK

With `N[C@H]1C=C(CO)[C@@H](O)[C@H](O)[C@H]1O` [valienamine], in the series with α-glucoside hydrolase, the “action on α-glucoside hydrolase” value was “possesses an action of suppressing the function of α-glucoside hydrolase”.

For `N[C@H]1C[C@](O)(CO)[C@@H](O)[C@H](O)[C@H]1O` [valiolamine, 1L(1S)-(1(OH),2,4,5/1,3)-5-amino-1-hydroxymethyl-1,2,3,4-cyclohexanetetrol], the IC50 in series [1] is 600 µM; in series [2] it was 1100 µM; in series [3], 190 µM; in series [4], 2.2 µM. For the same compound, in “toxicity (LD50) in rats”, the LD50 – broadly, the dose expected to kill half of the subjects tested – is no less than 500 mg/kg.
